Results reported in US20200170932A1, “EXTENDED RELEASE L-TRI-IODOTHYRONINE SAFELY NORMALIZES KEY ELEMENTS OF MOLECULAR PATHOLOGY IN ALZHEIMERS DISEASE” (priority 2018, published 2020).

Legend:
patients with AD = assay: Administering T3 to patients with AD (clinical observation); type: in vivo, human
Excerpt: The noradrenerigic neurotransmitter system is dependent on normal thyroid hormone activity for normal function. A deficient amount of thyroid hormone activity leads to downregulation of the noradrenergic system. This leads to attenuated postsynaptic effects and a failure to prosecute the noradrenergic mandate. In AD this phenomenon accounts for various signs and symptoms. There are aberrations of the diurnal rhythm including insomnia and daytime somnolence. Depression and/or anxiety may occur. Drooping of the upper eyelid (ptosis) is frequently seen in AD. The levator palpebrae superioris muscle, the elevator of the upper eyelid, is partially innervated by the sympathetic nervous system.

[1] = following ingestion; cited from earlier work
rat model of AD = rat model of AD (Sarkar); cited from earlier work
[2] = compounding pharmacies' technology, personal communication; cited from earlier work

In the case of `N[C@@H](Cc1cc(I)c(Oc2ccc(O)c(I)c2)c(I)c1)C(=O)O` [T3, 3,5,3′-triiodothyronine], the “countenance and alertness (ptosis, adrenergic dysregulation)” value (patients with AD) is given as “rapid, within days, and dramatic wide-eyed countenance and an appearance of increased alertness”, the “time to peak levels” value [1] is given as “one to two” and the “histology, memory and electrophysiological activity in the cholinergic system” value (rat model of AD) is given as “improved histology, memory and electrophysiological activity in the cholinergic system”. For the same compound, the “time of release to completion” value [2] was 2 to 8 h.
